Results from publication PMC3752901 (Clinical cancer research : an official journal of the …, 2013).

Assays:
ABCC4 = conditions: cited from earlier work; for Km: read-out: Michaelis-Menten constant (Km) for ABCC4
mouse Abcc4 [1] = target: T1, mouse Abcc4 (Mus musculus, UniProt E9Q236); conditions: 4 h
T1 sequence (E9Q236 1-1325): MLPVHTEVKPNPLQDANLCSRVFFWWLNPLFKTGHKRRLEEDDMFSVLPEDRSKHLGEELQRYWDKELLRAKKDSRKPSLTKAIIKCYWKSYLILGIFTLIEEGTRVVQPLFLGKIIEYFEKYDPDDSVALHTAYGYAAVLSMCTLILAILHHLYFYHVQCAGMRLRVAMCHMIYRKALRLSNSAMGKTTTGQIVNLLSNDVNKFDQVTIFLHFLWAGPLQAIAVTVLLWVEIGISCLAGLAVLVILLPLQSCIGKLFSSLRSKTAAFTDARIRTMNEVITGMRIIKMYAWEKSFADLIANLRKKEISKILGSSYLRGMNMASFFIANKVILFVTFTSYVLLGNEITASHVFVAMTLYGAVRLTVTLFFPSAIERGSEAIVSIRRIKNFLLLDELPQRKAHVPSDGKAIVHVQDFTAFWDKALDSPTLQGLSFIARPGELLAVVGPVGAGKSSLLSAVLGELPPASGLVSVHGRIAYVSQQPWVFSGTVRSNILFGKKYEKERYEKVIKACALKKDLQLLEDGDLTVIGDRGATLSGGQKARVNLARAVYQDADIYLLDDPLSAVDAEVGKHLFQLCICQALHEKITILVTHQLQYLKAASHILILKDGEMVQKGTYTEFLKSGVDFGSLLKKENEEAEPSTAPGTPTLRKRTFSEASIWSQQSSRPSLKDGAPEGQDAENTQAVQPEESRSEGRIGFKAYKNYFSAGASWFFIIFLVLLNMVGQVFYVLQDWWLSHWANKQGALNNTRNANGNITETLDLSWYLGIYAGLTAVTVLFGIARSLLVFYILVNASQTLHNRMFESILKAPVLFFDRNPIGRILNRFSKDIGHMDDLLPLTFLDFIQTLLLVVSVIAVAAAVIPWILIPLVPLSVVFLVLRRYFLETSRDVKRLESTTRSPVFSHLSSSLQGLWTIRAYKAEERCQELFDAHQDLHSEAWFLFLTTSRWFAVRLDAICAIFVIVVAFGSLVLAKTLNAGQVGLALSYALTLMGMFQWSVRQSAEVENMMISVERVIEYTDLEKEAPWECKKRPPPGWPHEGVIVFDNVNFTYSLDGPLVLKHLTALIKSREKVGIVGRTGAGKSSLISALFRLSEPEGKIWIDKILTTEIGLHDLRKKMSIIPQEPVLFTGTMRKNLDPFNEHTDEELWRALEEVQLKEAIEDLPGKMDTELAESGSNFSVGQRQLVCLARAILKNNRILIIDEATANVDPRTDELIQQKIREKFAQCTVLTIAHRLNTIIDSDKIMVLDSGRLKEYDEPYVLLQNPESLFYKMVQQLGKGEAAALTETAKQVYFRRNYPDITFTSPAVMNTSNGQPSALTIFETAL

mouse Abcc4 [2] = target: T1, mouse Abcc4; experiment: Accumulation/efflux in Saos-2 cells transfected with Abcc4; conditions: 100 μM, 4-h incubation
[3] = Plasma pharmacokinetics in wildtype and Abcc4; conditions: oral 50 mg/kg, wildtype vs Abcc4(−/−) mice
human ABCC4 = target: T2, human ABCC4 (Homo sapiens, UniProt O15439); experiment: Uptake into inside-out Sf9 vesicles expressing ABCC4; conditions: GSH 2mM
T2 sequence (O15439 1-1325): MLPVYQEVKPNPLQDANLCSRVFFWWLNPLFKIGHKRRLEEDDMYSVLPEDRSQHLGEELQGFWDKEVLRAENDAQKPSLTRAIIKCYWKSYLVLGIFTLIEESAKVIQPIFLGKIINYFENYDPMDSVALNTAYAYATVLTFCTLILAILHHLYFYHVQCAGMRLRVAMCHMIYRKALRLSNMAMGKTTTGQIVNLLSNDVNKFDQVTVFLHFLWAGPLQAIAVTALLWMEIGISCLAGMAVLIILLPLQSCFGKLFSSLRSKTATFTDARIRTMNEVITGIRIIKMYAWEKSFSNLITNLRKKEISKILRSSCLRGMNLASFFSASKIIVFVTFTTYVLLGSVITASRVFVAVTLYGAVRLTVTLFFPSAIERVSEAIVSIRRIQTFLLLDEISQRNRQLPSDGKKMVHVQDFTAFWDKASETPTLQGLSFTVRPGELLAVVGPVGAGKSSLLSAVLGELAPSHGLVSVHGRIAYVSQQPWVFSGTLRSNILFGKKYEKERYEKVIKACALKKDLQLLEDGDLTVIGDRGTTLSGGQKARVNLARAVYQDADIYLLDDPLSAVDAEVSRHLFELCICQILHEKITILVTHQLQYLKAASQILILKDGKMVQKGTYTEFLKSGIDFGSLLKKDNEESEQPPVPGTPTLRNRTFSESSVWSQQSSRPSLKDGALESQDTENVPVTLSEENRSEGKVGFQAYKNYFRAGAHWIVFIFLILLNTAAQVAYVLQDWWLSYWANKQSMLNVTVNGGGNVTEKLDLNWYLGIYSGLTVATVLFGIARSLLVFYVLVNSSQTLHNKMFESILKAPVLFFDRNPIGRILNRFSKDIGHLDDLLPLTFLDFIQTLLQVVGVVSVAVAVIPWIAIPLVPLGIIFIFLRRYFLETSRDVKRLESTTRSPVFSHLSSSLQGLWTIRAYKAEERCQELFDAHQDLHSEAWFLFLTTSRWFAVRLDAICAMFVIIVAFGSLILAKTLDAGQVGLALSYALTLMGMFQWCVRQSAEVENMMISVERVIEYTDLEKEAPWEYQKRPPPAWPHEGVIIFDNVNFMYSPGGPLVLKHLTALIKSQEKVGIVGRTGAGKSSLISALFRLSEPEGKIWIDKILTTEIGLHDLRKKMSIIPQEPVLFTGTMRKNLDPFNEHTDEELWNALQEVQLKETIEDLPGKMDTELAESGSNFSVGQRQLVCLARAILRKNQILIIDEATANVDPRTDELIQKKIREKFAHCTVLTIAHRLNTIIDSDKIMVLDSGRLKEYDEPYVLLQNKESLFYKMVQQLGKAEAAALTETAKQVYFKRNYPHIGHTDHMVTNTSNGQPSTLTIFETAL

[4] = ref 24 (methotrexate), 14 (cefadroxil); cited from earlier work

In the case of CC(=O)Oc1ccccc1C(=O)O [aspirin, acetylsalicylic acid], the “transported substrate of human ABCC4” value (ABCC4) is given as “transported substrate of human ABCC4” and the “substrate of mouse Abcc4” value (mouse Abcc4 [1]) is given as “substrates of mouse Abcc4”.
For Cc1ccc(NC(=O)c2ccc(CN3CCN(C)CC3)cc2)cc1Nc1nccc(-c2cccnc2)n1 [imatinib], the “transport by mouse Abcc4 (accumulation in Saos-2 cells overexpressing Abcc4 compared to control cells)” value (mouse Abcc4 [2]) was “no noticeable efflux transport” and the “effect of Abcc4-deficiency on the oral pharmacokinetic profile” value [3] was “not substantially affected”.
With O=C(O)c1ccccc1O [salicylic acid] the “substrate of mouse Abcc4” value (mouse Abcc4 [1]) was “substrates of mouse Abcc4”.
In the case of C[C@]12CC[C@@H]3c4ccc(O)cc4CC[C@H]3[C@@H]1CC[C@@H]2O[C@@H]1O[C@H](C(=O)O)[C@@H](O)[C@H](O)[C@H]1O [E2G, Estradiol-17β-D-glucuronide], the “increase of ABCC4-mediated transport by GSH” value (human ABCC4) is reported as “about 2 fold”.
In the case of Nc1ncnc2c1ncn2CCOCP(=O)(O)O [adefovir], the Km (ABCC4) is given as over 1000 µM.
In the case of Nc1nc2c(c(=O)[nH]1)N(C=O)C(CNc1ccc(C(=O)N[C@@H](CCC(=O)O)C(=O)O)cc1)CN2 (stereo partly drawn) [leucovorin], the Km (ABCC4) is listed as 640 µM.
For CC1=C(C(=O)O)N2C(=O)[C@@H](NC(=O)[C@H](N)c3ccc(O)cc3)[C@H]2SC1 [cefadroxil], the “pharmacokinetic profile after oral administration in Abcc4(−/−) mice” value [4] is given as “unchanged”.
In the case of C[C@H](Cn1cnc2c(N)ncnc21)OCP(=O)(O)O [tenofovir], the Km (ABCC4) is given as over 1000 µM.
For CN(Cc1cnc2nc(N)nc(N)c2n1)c1ccc(C(=O)N[C@@H](CCC(=O)O)C(=O)O)cc1 [MTX, methotrexate], the “pharmacokinetic profile after oral administration in Abcc4(−/−) mice” value [4] is listed as “unchanged” and the Km (ABCC4) is listed as 220 to 1300 µM.
